Test results reported in patent US10457677B2 (priority 2015, dated 2019).
Like-named read-outs stand apart in the source and are kept apart here.

Legend:
[1] = biological target: purified human recombinant ATM (ataxia telangiectasia mutated), full length (Homo sapiens (Human), UniProt Q13315); experiment: ATM kinase assay - determination of ATM inhibition (IC50 ATM), TR-FRET; format: biochemical; details: 10 μM ATP, substrate p53
Description: ATM kinase assay—determination of ATM inhibition (IC50 ATM):
The IC50 value was determined with the aid of a biochemical ATM kinase assay. The assay consists of two steps: the enzymatic reaction and the detection step. Firstly, ATM (ataxia telangiectasia mutated) protein and the test substance are incubated at different concentrations with addition of substrate protein p53 and ATP. ATM mediates the phosphorylation of p53 at several positions, including at amino acid S15. The amount of phosphorylated p53 is determined with the aid of specific antibodies and the TR-FRET technique. The enzymatic ATM assay is carried out as TR-FRET (HTRF™, Cisbio Bioassays) based 384-well assay. In the first step, purified human recombinant ATM (human ATM, full length, GenBank ID NM_000051, expressed in a mammal cell line) is incubated in assay buffer for 15 minutes with the ATM inhibitor in various concentrations and without test substance as negative or neutral control. The assay buffer comprises 25 mM HEPES pH 8.0, 10 mM Mg(CH3COO)2, 1 mM MnCl2, 0,1% BSA and 0,01% Brij® 35, 5 mM dithiothreitol (DTT). […] In the second step, purified human recombinant cmyc-labelled p53 (human p53, full length, GenBank ID BC003596, expressed in Sf21 insect cells) and ATP are added, and the reaction mixture is incubated at 22° C. for 30-35 minutes. The pharmacologically relevant assay volume is 5 μl. […] The enzymatic reaction is stopped by addition of EDTA. […] After incubation, usually for 2 hours (between 1.5 and 15h), for signal development, the plates are analysed in a plate reader (EnVision, PerkinElmer) using TRF mode (and with laser excitation). […] The measurement data were processed by means of Genedata Screener software.

[2] = test system: phosphorylation of CHK2 (phospho-Thr68) in HCT116 cells; experiment: Cellular pCHK2 assay: bleomycin-induced phosphorylation of CHK2 (phospho-Thr68), immunofluorescence high-content analysis; format: cell-based, human; details: read-out: IC50 (pCHK2)
Text: For the identification of substances which inhibit the phosphorylation of the protein kinase CHK2 at the amino acid threonine 68, an immunofluorescence-based “high content” analysis assay was used in HCT116 cells.
In vitro cell-based immunofluorescence assay for the identification of inhibitors of bleomycin-induced phosphorylation of CHK2 (phospho-Thr68) in the human colon carcinoma cell line HCT116:
HCT116 cells are sown out in a defined cell density in 384-well plates in culture medium (DMEM high glucose, 2 mM GlutaMax, 1 mM Na pyruvate, 10% FCS) and incubated overnight at 37° C. and 10% of CO2. On the following day, the test substances are added in a defined concentration range (1 nM to 30 μM) in combination with 10 μM bleomycin, where the concentration of the solvent DMSO is kept constant at 0.5%. […] Parallel staining of DNA with propidium iodide enables determination of the cell count. The pCHK2 signal is detected using a high-content imager (Molecular Devices IMX Ultra) and automatic image analysis using the MetaXpress software belonging to the instrument. The number of cell nuclei which have a pCHK2 signal above a defined background is determined.

PI3K p110δ/p85α (human) = PI3K p110δ/p85α (human) (Homo sapiens (Human), UniProt O00329); experiment: PI3K p110δ/p85α (human), non-radioactive assay (HTRF); format: biochemical; details: as printed:
Description: PI3K p110δ/p85α (Human), Non-radioactive Assay
(§1) PI3K p110δ/p85α (human) was incubated in an assay buffer comprising 10 μM phosphati-dylinositol 4,5-bisphosphate and MgATP (concentration as necessary). The reaction was initiated by addition of MgATP solution. After an incubation time of 30 min at room temperature, the reaction was stopped by addition of a solution consisting of EDTA and biotinylated phosphatidylinositol 3,4,5-trisphosphate. Finally, the detection buffer, consisting of a europium-labelled anti-GST monoclonal antibody, a GST-labelled GRP1 PH domain and streptavidin allophycocyanin, was added. The plate was read out via homogeneous time-resolved fluorescence (HTRF) and the corresponding signals were evaluated via the formula HTRF=10000×(Em665nm/Em620nm).

PI3K p110α/p85α (human) = PI3K p110α/p85α (human) (Homo sapiens (Human), UniProt P42336); experiment: PI3K p110α/p85α (human), non-radioactive assay (HTRF); format: biochemical; details: as printed:
Description: PI3K p110α/p85α (Human), Non-radioactive Assay
as §1, with “p110α/p85α” for “p110δ/p85α”, “After” for “After an”, “incubation” for “incubation time of 30 min”, “temperature for 40 minutes,” for “temperature,”

PI3K (p120γ) (human) = PI3K (p120γ) (human) (Homo sapiens (Human), UniProt P48736); experiment: PI3K (p120γ) (human), non-radioactive assay (HTRF); format: biochemical; details: as printed:
Description: PI3K (p120γ) (Human), Non-radioactive Assay
as §1, with “(p120γ)” for “p110δ/p85α”, “HTRF=10000×(Em665nm/Em620nm). • MgATP=magnesium 5′-O—[hydroxy({[(hydroxyphosphinato)oxy]phosphinato}oxy)phosphoryl]adenosine • MgCl2=magnesium dichloride • EGTA=ethylene glycol bis(aminoethyl ether) N,N,N′,N′-tetraacetic acid • Tween 20=polysorbate 20 Medicament/pharmaceutical Composition” for “HTRF=10000×(Em665nm/Em620nm).”

[3] = HCT116 cells, 10 μM bleomycin, 4 h

Chain of purified human recombinant ATM (ataxia telangiectasia mutated), full length (Q13315 whole entry, change not shown): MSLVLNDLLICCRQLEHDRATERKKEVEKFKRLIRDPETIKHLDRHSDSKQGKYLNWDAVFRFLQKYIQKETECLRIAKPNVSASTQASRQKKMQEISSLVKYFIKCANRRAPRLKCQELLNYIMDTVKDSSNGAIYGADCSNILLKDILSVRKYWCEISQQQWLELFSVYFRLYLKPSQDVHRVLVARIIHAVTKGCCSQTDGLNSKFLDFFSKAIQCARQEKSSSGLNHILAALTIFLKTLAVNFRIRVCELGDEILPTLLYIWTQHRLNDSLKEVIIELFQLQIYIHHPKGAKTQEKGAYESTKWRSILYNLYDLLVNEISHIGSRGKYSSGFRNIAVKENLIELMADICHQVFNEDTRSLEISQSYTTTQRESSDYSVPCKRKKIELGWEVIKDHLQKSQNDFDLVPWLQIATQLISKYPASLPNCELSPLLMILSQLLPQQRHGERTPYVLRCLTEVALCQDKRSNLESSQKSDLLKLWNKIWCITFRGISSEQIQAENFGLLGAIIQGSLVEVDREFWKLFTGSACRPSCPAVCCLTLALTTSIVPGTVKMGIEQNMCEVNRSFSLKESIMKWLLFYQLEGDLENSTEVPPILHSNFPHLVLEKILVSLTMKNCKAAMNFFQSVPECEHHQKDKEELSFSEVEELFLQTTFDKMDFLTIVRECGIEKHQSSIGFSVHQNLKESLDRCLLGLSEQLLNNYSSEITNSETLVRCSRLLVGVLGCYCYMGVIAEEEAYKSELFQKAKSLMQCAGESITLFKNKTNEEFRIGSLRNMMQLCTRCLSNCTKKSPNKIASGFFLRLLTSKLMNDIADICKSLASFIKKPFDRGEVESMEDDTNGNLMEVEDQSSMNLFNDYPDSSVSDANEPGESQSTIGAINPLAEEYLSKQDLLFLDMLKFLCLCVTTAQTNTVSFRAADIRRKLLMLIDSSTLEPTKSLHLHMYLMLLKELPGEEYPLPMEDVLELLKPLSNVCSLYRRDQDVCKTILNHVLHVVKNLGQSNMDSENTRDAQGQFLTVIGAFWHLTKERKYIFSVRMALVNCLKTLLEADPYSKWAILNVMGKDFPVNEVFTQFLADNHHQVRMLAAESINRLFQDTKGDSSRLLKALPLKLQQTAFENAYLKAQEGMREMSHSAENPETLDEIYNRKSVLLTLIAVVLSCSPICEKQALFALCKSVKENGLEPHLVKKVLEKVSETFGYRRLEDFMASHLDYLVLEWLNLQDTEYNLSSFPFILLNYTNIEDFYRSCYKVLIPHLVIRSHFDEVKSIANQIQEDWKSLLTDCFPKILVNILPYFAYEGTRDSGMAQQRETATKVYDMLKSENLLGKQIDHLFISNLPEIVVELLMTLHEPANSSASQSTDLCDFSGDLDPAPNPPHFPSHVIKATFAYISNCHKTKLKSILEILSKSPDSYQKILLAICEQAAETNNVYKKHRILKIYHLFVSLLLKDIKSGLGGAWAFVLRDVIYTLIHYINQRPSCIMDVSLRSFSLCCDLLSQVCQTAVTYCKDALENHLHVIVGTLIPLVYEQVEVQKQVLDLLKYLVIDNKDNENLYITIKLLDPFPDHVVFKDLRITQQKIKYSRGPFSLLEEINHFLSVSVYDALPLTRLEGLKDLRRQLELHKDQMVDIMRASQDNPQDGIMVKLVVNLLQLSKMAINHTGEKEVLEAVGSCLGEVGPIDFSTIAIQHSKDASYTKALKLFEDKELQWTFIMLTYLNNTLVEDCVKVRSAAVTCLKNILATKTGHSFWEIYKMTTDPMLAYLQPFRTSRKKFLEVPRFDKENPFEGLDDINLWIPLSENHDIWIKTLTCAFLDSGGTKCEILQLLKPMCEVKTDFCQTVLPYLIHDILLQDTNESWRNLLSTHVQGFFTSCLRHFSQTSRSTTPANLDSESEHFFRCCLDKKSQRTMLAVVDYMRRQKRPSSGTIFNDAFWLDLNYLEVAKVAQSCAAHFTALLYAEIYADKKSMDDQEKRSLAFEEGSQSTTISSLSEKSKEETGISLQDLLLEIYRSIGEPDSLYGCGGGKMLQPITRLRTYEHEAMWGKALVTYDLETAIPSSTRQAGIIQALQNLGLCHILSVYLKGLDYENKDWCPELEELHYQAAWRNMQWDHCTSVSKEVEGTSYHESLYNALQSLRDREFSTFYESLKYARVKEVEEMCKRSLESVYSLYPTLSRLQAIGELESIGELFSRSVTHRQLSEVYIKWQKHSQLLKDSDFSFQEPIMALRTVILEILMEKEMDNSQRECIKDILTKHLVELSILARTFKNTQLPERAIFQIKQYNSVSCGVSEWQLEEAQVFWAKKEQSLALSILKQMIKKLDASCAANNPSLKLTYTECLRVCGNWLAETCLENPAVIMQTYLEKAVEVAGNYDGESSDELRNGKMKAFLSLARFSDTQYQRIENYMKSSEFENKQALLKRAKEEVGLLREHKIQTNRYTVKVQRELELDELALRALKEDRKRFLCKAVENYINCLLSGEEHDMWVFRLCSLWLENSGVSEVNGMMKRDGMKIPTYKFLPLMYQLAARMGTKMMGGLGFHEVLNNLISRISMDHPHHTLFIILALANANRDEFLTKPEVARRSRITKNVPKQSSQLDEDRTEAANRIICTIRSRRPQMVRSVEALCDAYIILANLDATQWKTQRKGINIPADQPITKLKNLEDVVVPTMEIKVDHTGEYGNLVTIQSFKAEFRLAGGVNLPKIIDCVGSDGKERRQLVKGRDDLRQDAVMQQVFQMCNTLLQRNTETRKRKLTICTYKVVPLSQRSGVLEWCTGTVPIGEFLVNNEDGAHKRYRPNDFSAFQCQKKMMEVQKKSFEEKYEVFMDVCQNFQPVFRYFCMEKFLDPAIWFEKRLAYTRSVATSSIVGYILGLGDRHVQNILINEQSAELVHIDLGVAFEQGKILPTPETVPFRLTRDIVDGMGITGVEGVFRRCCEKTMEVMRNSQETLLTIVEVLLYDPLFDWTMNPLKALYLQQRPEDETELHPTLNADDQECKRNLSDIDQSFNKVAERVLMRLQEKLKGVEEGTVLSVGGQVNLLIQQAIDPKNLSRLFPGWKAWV
Chain of PI3K p110α/p85α (human) (P42336 whole entry): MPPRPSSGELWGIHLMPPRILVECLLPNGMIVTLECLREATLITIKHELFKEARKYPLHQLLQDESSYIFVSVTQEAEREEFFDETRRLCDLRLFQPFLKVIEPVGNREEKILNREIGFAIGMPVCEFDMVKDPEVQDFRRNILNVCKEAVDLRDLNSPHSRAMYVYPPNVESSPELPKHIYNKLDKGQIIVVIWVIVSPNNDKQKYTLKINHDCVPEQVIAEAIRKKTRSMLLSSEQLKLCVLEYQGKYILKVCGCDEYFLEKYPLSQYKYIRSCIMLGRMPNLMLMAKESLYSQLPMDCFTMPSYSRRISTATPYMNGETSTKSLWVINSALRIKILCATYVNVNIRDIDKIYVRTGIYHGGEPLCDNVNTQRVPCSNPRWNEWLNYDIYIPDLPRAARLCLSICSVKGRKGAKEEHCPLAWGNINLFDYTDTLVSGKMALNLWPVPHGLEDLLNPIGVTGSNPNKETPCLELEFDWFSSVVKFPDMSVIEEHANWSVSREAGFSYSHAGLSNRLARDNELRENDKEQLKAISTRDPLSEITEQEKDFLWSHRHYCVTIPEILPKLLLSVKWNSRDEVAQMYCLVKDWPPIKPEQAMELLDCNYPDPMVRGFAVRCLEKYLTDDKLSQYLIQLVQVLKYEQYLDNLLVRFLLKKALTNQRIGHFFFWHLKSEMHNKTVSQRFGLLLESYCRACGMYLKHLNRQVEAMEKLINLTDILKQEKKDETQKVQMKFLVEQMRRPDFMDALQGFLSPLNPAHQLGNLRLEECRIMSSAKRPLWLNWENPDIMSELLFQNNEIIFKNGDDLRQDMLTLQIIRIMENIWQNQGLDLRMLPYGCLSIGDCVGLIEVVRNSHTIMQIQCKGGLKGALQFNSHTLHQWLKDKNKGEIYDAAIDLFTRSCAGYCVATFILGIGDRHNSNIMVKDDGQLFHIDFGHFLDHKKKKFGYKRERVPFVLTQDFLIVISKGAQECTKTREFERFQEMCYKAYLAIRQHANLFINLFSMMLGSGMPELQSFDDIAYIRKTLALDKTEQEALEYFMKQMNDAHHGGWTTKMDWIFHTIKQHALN
Chain of PI3K p110α/p85α (human) (P27986 whole entry partner): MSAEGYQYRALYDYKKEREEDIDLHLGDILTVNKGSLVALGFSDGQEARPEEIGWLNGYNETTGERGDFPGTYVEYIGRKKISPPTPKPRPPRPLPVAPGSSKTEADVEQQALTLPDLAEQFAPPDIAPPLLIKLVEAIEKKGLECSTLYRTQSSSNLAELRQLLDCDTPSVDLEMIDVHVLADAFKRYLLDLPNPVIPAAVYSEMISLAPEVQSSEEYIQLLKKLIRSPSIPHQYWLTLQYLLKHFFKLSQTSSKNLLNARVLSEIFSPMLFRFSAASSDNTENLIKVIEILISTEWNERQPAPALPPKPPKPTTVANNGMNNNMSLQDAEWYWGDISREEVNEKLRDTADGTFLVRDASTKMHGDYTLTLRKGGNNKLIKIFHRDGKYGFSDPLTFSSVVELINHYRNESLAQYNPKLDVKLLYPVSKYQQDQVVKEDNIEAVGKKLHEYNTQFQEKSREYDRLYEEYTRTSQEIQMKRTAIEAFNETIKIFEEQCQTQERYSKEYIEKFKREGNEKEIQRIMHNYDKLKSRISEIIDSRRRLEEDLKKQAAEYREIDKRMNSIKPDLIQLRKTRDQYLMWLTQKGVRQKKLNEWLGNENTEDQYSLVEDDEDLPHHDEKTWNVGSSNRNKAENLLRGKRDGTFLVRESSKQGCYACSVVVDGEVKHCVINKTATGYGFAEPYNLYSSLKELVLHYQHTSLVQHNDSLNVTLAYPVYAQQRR

Row | Molecule | IC50 [1] | IC50 ([2]; Homo sapiens, HCT-116, 4 h) | further results
1 | COc1cnc(-n2c(=O)n(C)c3cnc4cc(OC)c(-c5cnn(C)c5)cc4c32)c(F)c1 [compound 105, 1-(3-Fluoro-5-methoxy-pyridin-2-yl)-7-methoxy-3-methyl-8-(1-methyl-1H-pyrazol-4-yl)-1,3-dihydro-imidazo[4,5-c]quinolin-2-one] | < 1 nM | 200 to 1000 nM | –
2 | CCc1cncc(F)c1-n1c(=O)n(C)c2cnc3cc(OC)c(-c4cn(C)nn4)cc3c21 [compound 126, 1-(3-Ethyl-5-fluoropyridin-4-yl)-7-methoxy-3-methyl-8-(1-methyl-1H-1,2,3-triazol-4-yl)-1,3-dihydroimidazo-[4,5-c] quinolin-2-one] | < 10 nM | 200 to 1000 nM | ratio IC50 (ATM) vs PI3Kdelta, selectivity with respect to PI3Kdelta (PI3K p110δ/p85α (human)): at least 2000 times; ratio IC50 (ATM) vs PI3Kalpha, selectivity with respect to PI3Kalpha (PI3K p110α/p85α (human)): at least 2000 times; ratio IC50 (ATM) vs PI3Kgamma, selectivity with respect to PI3Kgamma (PI3K (p120γ) (human)): at least 2000 times
3 | 1-(3-Fluoro-5-methylpyridin- 4-yl)-7-methoxy-3-methyl-8- (2-methyl-2H-1,2,3-triazol- 4-yl)-1,3-dihydroimidazo- [4,5-c] quinolin-2-one [compound 103] | < 50 nM | – | IC50 [2, 3]: 200 to 1000 nM
4 | CCc1cnccc1-n1c(=O)n(C)c2cnc3cc(OC)c(-c4cnn(CC)c4)cc3c21 [compound 157, 8-(1-Ethyl-1H-pyrazol-4-yl)-1-(3-ethylpyridin-4-yl)-7-methoxy-3-methyl-1,3-dihydroimidazo[4,5-c] quinolin-2-one] | < 10 nM | < 200 nM | –
5 | COc1cc2ncc3c(c2cc1-c1cn(C)nc1C)n(-c1c(F)cncc1OC(F)F)c(=O)n3C [compound 147, 1-(3-Difluoromethoxy-5-fluoropyridin-4-yl)-8-(1,3-dimethyl-1H-pyrazol-4-yl)-7-methoxy-3-methyl-1,3-dihydroimidazo[4,5-c]-quinolin-2-one] | < 1 nM | < 200 nM | –
6 | COc1cc2ncc3c(c2cc1-c1cc[nH]n1)n(-c1cn(C)nc1C)c(=O)n3C [compound 121, 1-(1,3-Dimethyl-1H-pyrazol-4-yl)-7-methoxy-3-methyl-8-(1H-pyrazol-3-yl)-1,3-dihydroimidazo[4,5-c]-quinolin-2-one] | < 10 nM | < 200 nM | –
7 | COc1cc2ncc3c(c2cc1-c1cnn(C)c1)n(-c1cn(C)nc1F)c(=O)n3C [compound 141, 1-(3-Fluoro-1-methyl-1H-pyrazol-4-yl)-7-methoxy-3-methyl-8-(1-methyl-1H-pyrazol-4-yl)-1,3-dihydro-imidazo[4,5-c]quinolin-2-one] | < 10 nM | 200 to 1000 nM | –
8 | CCn1cc(-c2cc3c(cc2OC)ncc2c3n(-c3c(F)cncc3OC)c(=O)n2C)cn1 [Example 13] | – | – | IC50 [2, 3]: < 200 nM
9 | COc1cc2ncc3c(c2cc1-c1cnn(C)c1)n(-c1ncc(N2CCNCC2)cc1F)c(=O)n3C [compound 123, 1-(3-Fluoro-5-piperazin-1-yl-pyridin-2-yl)-7-methoxy-3-methyl-8-(1-methyl-1H-pyrazol-4-yl)-1,3-dihydro-imidazo[4,5-c]quinolin-2-one] | < 10 nM | 200 to 1000 nM | ratio IC50 (ATM) vs PI3Kdelta, selectivity with respect to PI3Kdelta (PI3K p110δ/p85α (human)): at least 2000 times; ratio IC50 (ATM) vs PI3Kalpha, selectivity with respect to PI3Kalpha (PI3K p110α/p85α (human)): at least 2000 times; ratio IC50 (ATM) vs PI3Kgamma, selectivity with respect to PI3Kgamma (PI3K (p120γ) (human)): at least 2000 times
10 | [2H]C([2H])([2H])Oc1cnc(-n2c(=O)n(C)c3cnc4cc(OC)c(-c5cnn(C)c5)cc4c32)c(F)c1 [compound 155, 1-[3-Fluoro-5-(trideuterio-methoxy)-2-pyridyl]-7-methoxy-3-methyl-8-(1-methylpyrazol-4-yl) imidazo-[4,5-c]quinolin-2-one] | < 1 nM | < 200 nM | –
11 | CNC(=O)c1cnc(-n2c(=O)n(C)c3cnc4cc(OC)c(-c5cnn(C)c5)cc4c32)c(F)c1 [compound 138, 5-Fluoro-6-[7-methoxy-3-methyl-8-(1-methyl-1H-pyrazol-4-yl)-2-oxo-2,3-dihydroimidazo[4,5-c]-quinolin-1-yl]-N-methyl-nicotinamid] | < 10 nM | 200 to 1000 nM | –
12 | COc1cc2ncc3c(c2cc1-c1cnn(C2CNC2)c1)n(-c1c(F)cncc1OC)c(=O)n3C [compound 208, 8-[1-(Azetidin-3-yl)-1H-pyrazol-4-yl]-1-(3-fluoro-5-methoxypyridin-4-yl)-7-methoxy-3-methyl-1H,2H,3H-imidazo[4,5-c]-quinolin-2-one] | < 10 nM | – | –
13 | COc1cc2ncc3c(c2cc1-c1cc(N)n[nH]1)n(-c1ncccc1F)c(=O)n3C [compound 65, 8-(3-Amino-1H-pyrazol-5-yl)-1-(3-fluoro-2-pyridyl)-7-methoxy-3-methyl-imidazo-[4,5-c]quinolin-2-one] | < 1 nM | – | –
14 | COc1cc2ncc3c(c2cc1-c1cnn[nH]1)n(-c1c(F)cncc1OC)c(=O)n3C [compound 134, 1-(3-Fluoro-5-methoxy-pyridin-4-yl)-7-methoxy-3-methyl-8-(3H-1,2,3-triazol-4-yl)-1,3-dihydroimidazo-[4,5-c] quinolin-2-one] | < 1 nM | – | –
15 | COc1cc2ncc3c(c2cc1-c1cnn(C)c1)n(-c1ccc2ccccc2n1)c(=O)n3C [compound 68, 7-Methoxy-3-methyl-8-(1-methyl-1H-pyrazol-4-yl)-1-quinolin-2-yl-1,3-dihydro-imidazo[4,5-c]quinolin-2-one] | < 10 nM | – | –
16 | COc1cnc(-n2c(=O)n(C)c3cnc4cc(OC)c(-c5ccc6nc[nH]c6c5)cc4c32)c(F)c1 [compound 153, 8-(3H-Benzimidazol-5-yl)-1-(3-fluoro-5-methoxypyridin-2-yl)-7-methoxy-3-methyl-1,3-dihydroimidazo[4,5-c]-quinolin-2-one] | < 10 nM | – | –
17 | COc1cc2ncc3c(c2cc1-c1cnn(C)n1)n(-c1c(F)cncc1OC)c(=O)n3C [compound 127, 1-(3-Fluoro-5-methoxy-pyridin-4-yl)-7-methoxy-3-methyl-8-(2-methyl-2H-1,2,3-triazol-4-yl)-1,3-dihydroimidazo[4,5-c] quinolin-2-one] | < 10 nM | – | –
